Assay results taken from US20230094952A1, “Method for Culturing Hematopoietic Stem Cells” (Sumitomo Pharma Co., Ltd., priority 2019, published 2023).

Columns and labels:
[1] = system: mouse long-term hematopoietic stem cells; assay: Combination test with UM171 on mouse long-term hematopoietic stem cells; assay type: cell-based; settings: n=2
Description: The cells after classification were seeded in a 96-well plate. A cell culture medium was prepared by adding Stem Cell Factor (SCF, manufactured by PeproTech, Inc.) and Thrombopoietin (TPO, manufactured by PeproTech, Inc.) to StemSpan SFEM culture medium (manufactured by […] Technologies Inc.) and added in advance to a cell culture 96-well plate (manufactured by BD Biosciences) at 100 μL/well, and the cells sorted with the FACS Aria II cell sorter (BD Biosciences) were then seeded at 10 cells/well.
The test compounds each in the form of 10 mM DMSO solution were diluted with the cell culture medium to a final concentration of 1 μM, and added to the cells seeded after classification through medium exchange to a final volume of 200 μL/well. Thereafter, the cells were cultured in a CO2 incubator under conditions of 37° C. and 5% CO2 for 1 week.
After culture, the cells were stained with the antibodies for the surface markers c-Kit and Sca-1, Ter-119, B220, CD3, CD4, CD8a, Gr-1, and CD11b, and the ratio and post-growth cell count of a KLS fraction (c-Kit^+, Lin^−, Sca-1^+) or an mCherry-positive fraction given with use of a FACS Aria II cell sorter were analyzed by using FlowJo (BD Biosciences). The mCherry-positive fraction is a cell fraction expressing the Hoxb5 gene, and the KLS fraction is a cell fraction being c-Kit-positive, Lin-negative, and Sca-1-positive, and includes hematopoietic stem cells and multipotent progenitor cells as main components.
A DMSO solution of artemether was adjusted with the cell culture medium to three final concentrations (0.1 μM, 1 μM, 10 μM), and a DMSO solution of UM171 was adjusted with the cell culture medium to four final concentrations (0.1 μM, 0.3 μM, 1 μM, 3 μM), and cell culture was performed at n=2 by the same method as in Example 1. The cell culture and evaluation criteria were the same as those in Example 2.

mouse HoxB5 = assay: Confirmation test by gene expression of mouse HoxB5 (qRT-PCR); assay type: cell-based; settings: for mGAPDH Ct value / mHoxB5 Ct value: day 7 of culture; for Ct value difference: mHoxB5 minus mGAPDH
Description: Cells cultured in the presence of artemether were evaluated by gene expression of mouse HoxB5. Cells were cultured in the same manner as in Example 3, and the cells after culture were treated with a Single Cell to CT qRT-PCR kit (manufactured by Life Technologies) according to the instruction of the kit. The cells treated were washed once with PBS, a cell-lysing solution was then added thereto, and the resultant was subjected to RNA extraction followed by reverse transcription reaction for cDNA synthesis, amplified through Taqman Gene Expression Assay in 14 cycles, and diluted with 1×TE buffer (pH 8.0). Real-time PCR was performed with the following Taqman probes at 95° C. for 3 seconds and at 60° C. for 30 seconds in 40 cycles to amplify the sample (HoxbB5: Mm00657672 (manufactured by Thermo Fisher Scientific), Gapdh: Mm99999915-g1 (manufactured by Thermo Fisher Scientific)). All the thermal cycler operations were analyzed by using a QuantStudio 6 (manufactured by Applied Biosystems) (Table 5).
From Table 5, we were able to confirm, by allowing the compound to act, the expression of the long-term hematopoietic stem cell marker HoxB5 in cells on day 7 of culture under culture conditions such that the mouse HoxB5 Ct value was 30 or less and the ACT value was 16 or less.

[2] = artemether 0.1 μM + UM171 0.1 μM
[3] = artemether 0.1 μM + UM171 0.3 μM
[4] = artemether 10 μM + UM171 0.1 μM
[5] = artemether 10 μM + UM171 0.3 μM

CO[C@H]1O[C@@H]2O[C@@]3(C)CC[C@H]4[C@H](C)CC[C@@H]([C@H]1C)[C@@]24OO3 [Example 1-30, artemether, reference compound] was tested, and the KLS-positive rate [1, 2] was 52.0%, the Viable cell count [1, 2] was 430.0 cell and the mCherry-positive rate [1, 2] was 51.8%. It also gave a KLS-positive rate [1, 3] of 42.0%, a Viable cell count [1, 3] of 257.0 cell and a mCherry-positive rate [1, 3] of 78.1%. The KLS-positive rate ([1]; artemether 0.1 μM + UM171 1 μM) was 93.4%, the Viable cell count ([1]; artemether 0.1 μM + UM171 1 μM) was 28.5 cell and the mCherry-positive rate ([1]; artemether 0.1 μM + UM171 1 μM) was 100.0%. It also gave a KLS-positive rate ([1]; artemether 0.1 μM + UM171 3 μM) of 60.6%, a Viable cell count ([1]; artemether 0.1 μM + UM171 3 μM) of 101.5 cell and a mCherry-positive rate ([1]; artemether 0.1 μM + UM171 3 μM) of 82.4%. It also gave a KLS-positive rate ([1]; artemether 1 μM + UM171 0.1 μM) of 33.1%, a Viable cell count ([1]; artemether 1 μM + UM171 0.1 μM) of 269.0 cell and a mCherry-positive rate ([1]; artemether 1 μM + UM171 0.1 μM) of 96.3%. For the same molecule, the KLS-positive rate ([1]; artemether 1 μM + UM171 0.3 μM) was 48.6%, the Viable cell count ([1]; artemether 1 μM + UM171 0.3 μM) was 151.0 cell and the mCherry-positive rate ([1]; artemether 1 μM + UM171 0.3 μM) was 99.1%. It also gave a KLS-positive rate ([1]; artemether 1 μM + UM171 1 μM) of 93.7%, a Viable cell count ([1]; artemether 1 μM + UM171 1 μM) of 23.0 cell and a mCherry-positive rate ([1]; artemether 1 μM + UM171 1 μM) of 100.0%. For the same molecule, the KLS-positive rate ([1]; artemether 1 μM + UM171 3 μM) was 67.3%, the Viable cell count ([1]; artemether 1 μM + UM171 3 μM) was 23.5 cell and the mCherry-positive rate ([1]; artemether 1 μM + UM171 3 μM) was 100.0%. For the same molecule, the KLS-positive rate [1, 4] was 56.7%, the Viable cell count [1, 4] was 122.0 cell and the mCherry-positive rate [1, 4] was 99.6%. For the same molecule, the KLS-positive rate [1, 5] was 91.1%, the Viable cell count [1, 5] was 38.0 cell and the mCherry-positive rate [1, 5] was 100.0%. For the same molecule, the KLS-positive rate ([1]; artemether 10 μM + UM171 1 μM) was 95.9%, the Viable cell count ([1]; artemether 10 μM + UM171 1 μM) was 9.5 cell and the mCherry-positive rate ([1]; artemether 10 μM + UM171 1 μM) was 100.0%. It also gave a KLS-positive rate ([1]; artemether 10 μM + UM171 3 μM) of 94.7%, a Viable cell count ([1]; artemether 10 μM + UM171 3 μM) of 19.0 cell and a mCherry-positive rate ([1]; artemether 10 μM + UM171 3 μM) of 96.9%. For the same molecule, the “mGAPDH Ct value” (mouse HoxB5; compound 0.03 μM) was 13.12, the “mHoxB5 Ct value” (mouse HoxB5; compound 0.03 μM) was 30.72 and the “mGAPDH Ct value” (mouse HoxB5; compound 0.1 μM) was 13.23. For the same molecule, the “mHoxB5 Ct value” (mouse HoxB5; compound 0.1 μM) was 30.57, the “mGAPDH Ct value” (mouse HoxB5; compound 0.3 μM) was 14.47 and the “mHoxB5 Ct value” (mouse HoxB5; compound 0.3 μM) was 28.79. The “mGAPDH Ct value” (mouse HoxB5; compound 1 μM) was 13.02, the “mHoxB5 Ct value” (mouse HoxB5; compound 1 μM) was 31.18 and the “mGAPDH Ct value” (mouse HoxB5; compound 3 μM) was 13.90. The “mHoxB5 Ct value” (mouse HoxB5; compound 3 μM) was 28.99, the “mGAPDH Ct value” (mouse HoxB5; compound 10 μM) was 17.68 and the “mHoxB5 Ct value” (mouse HoxB5; compound 10 μM) was 27.62. The Ct value difference (mouse HoxB5; compound 0.03 μM) was 17.60, the Ct value difference (mouse HoxB5; compound 0.1 μM) was 17.34 and the Ct value difference (mouse HoxB5; compound 0.3 μM) was 14.31. The Ct value difference (mouse HoxB5; compound 1 μM) was 18.16, the Ct value difference (mouse HoxB5; compound 3 μM) was 15.10 and the Ct value difference (mouse HoxB5; compound 10 μM) was 9.94.
